Laboratory results from patent publication US20240158393A1, “PYRIDONE COMPOUNDS AND METHODS OF USE” (Exelixis, Inc., priority 2021, published 2024).
Where a name gives a salt, the structure may show the parent alone.

Columns and labels:
[1] = biological target: T1, Human Axl (Homo sapiens, UniProt P30530); experiment: Human AXL kinase assay (33P radiometric / HTRF KinEase); format: biochemical; conditions: protocols of Examples A-1 and/or A-2
T1 construct: Human AXL (residues 464-885)
T1 sequence (P30530 1-894 Q764R): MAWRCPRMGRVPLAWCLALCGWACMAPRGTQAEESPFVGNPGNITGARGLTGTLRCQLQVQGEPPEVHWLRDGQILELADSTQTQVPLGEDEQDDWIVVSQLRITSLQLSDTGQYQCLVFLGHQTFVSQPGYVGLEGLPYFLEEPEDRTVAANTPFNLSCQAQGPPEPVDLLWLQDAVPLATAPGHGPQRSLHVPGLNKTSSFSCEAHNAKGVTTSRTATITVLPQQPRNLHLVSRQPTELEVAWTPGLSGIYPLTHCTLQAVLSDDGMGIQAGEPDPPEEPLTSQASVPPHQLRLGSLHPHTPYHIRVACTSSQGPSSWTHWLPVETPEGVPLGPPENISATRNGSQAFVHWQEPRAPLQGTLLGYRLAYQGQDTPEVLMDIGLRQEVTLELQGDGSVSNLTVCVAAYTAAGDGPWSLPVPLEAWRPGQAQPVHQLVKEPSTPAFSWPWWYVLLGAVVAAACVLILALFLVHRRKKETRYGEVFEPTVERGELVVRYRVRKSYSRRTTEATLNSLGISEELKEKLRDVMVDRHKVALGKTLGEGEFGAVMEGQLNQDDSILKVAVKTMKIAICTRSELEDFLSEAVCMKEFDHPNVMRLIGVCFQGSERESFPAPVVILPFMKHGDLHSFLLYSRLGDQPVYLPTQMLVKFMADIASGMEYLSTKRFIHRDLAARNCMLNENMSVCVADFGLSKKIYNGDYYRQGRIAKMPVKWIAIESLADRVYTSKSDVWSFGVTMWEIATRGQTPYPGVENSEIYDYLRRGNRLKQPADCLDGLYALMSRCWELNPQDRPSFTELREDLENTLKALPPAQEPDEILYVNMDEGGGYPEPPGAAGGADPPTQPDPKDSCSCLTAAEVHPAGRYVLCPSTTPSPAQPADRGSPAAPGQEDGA

[2] = biological target: T2, Human Met (Homo sapiens, UniProt P08581); experiment: Human Met kinase assay (33P radiometric / HTRF KinEase); format: biochemical; conditions: protocols of Examples D-1 and/or D-2; read-out: c-Met IC50
T2 construct: Human MET (residues 956-1390)
T2 sequence (P08581 974-1390 limits assumed): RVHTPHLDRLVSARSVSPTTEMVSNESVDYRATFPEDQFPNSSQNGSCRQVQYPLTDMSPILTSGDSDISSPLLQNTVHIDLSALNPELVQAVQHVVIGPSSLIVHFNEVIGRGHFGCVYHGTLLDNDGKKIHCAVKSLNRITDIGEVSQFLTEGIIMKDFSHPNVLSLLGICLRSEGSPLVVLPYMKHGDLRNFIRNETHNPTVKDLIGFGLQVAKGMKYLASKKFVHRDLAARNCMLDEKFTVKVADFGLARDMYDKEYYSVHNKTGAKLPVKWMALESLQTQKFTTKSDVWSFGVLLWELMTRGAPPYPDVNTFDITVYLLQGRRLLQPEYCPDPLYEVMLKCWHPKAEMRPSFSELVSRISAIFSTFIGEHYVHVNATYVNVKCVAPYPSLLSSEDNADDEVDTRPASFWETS
Method in brief: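 Two formats gave IC50s by curve fitting. HTRF KinEase used MET residues 956-1390 with 1 μM biotin-peptide and 3.0 μM ATP (Km) for 40 min at room temperature, ten doses in 3% DMSO, 665/620 nm read. The 33P transfer assay used mutant Met R974-S1390 A1209G/V1290L (3.4 nM), 10 μM ATP, 250 μM peptide, pH 7.0, 40 min, nine doses from 1 μM.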

Row | IC50 [1] [nM] | IC50 [2] [nM] | SMILES
1 | ≤ 100 | ≤ 100 | COc1cc2nccc(Oc3ccc(NC(=O)c4c(C)nc(C)c(C(C)C)c4O)cc3F)c2nc1OC [Compound 31, N-[4-[(6,7-Dimethoxy-1,5-naphthyridin-4-yl)oxy]-3-fluorophenyl]-4-hydroxy-2,6-dimethyl-5-propan-2-ylpyridine-3-carboxamide]
2 | ≤ 100 | > 300 | COc1cc2nccc(Oc3ccc(NC(=O)c4cnc(C)c(/C=C/C5CCCC5)c4O)cc3F)c2nc1OC [Compound 25, 5-[(E)-2-Cyclopentylethenyl]-N-[4-[(6,7-dimethoxy-1,5-naphthyridin-4-yl)oxy]-3-fluorophenyl]-4-hydroxy-6-methylpyridine-3-carboxamide]
3 | ≤ 100 | > 300 | COc1cc2nccc(Oc3ccc(NC(=O)c4c(C)n(C)c(C)c(N5CCCCC5)c4=O)cc3F)c2nc1OC [Compound 90, N-[4-[(6,7-dimethoxy-1,5-naphthyridin-4-yl)oxy]-3-fluorophenyl]-1,2,6-trimethyl-4-oxo-5-piperidin-1-ylpyridine-3-carboxamide]
4 | ≤ 100 | ≤ 100 | COc1cc2nccc(Oc3ccc(NC(=O)c4c(C)nc(C)c(C5=CCCC5)c4O)cc3F)c2nc1OC [Compound 1-2, 5-(Cyclopenten-1-yl)-N-[4-[(6,7-dimethoxy-1,5-naphthyridin-4-yl)oxy]-3-fluorophenyl]-4-hydroxy-2,6-dimethylpyridine-3-carboxamide hydrochloride]
5 | ≤ 100 | ≤ 100 | C=C(C)n1c(C)cc(C)c(C(=O)Nc2ccc(Oc3ccnc4cc(OC)c(OC)nc34)c(F)c2)c1=O [Compound 20, N-[4-[(6,7-Dimethoxy-1,5-naphthyridin-4-yl)oxy]-3-fluorophenyl]-4,6-dimethyl-2-oxo-1-prop-1-en-2-ylpyridine-3-carboxamide]
